Experiment [1] concerns the target T1, Muscarinic acetylcholine receptor (Rattus norvegicus) (UniProt P08482+P08483+P08485+P08911+P10980). In words: Percent inhibition towards muscarinic receptor in rat neocortex using 0.1 nM [3H]cis-methyldioxolane receptor binding assay (RCMD).
Experiment [2] deals with T1, Muscarinic acetylcholine receptor (Rattus norvegicus). Put plainly: Percent inhibition towards muscarinic receptor in rat neocortex using 0.03 nM [3H]quinuclidinyl benzylate receptor binding assay (RQMB) was determined.
For experiment [3], the target named is Muscarinic acetylcholine receptor. Put plainly: Inhibition of 0.1 nM [3H]cis-methyldioxolane binding to rat neocortex muscarinic receptor. The experiment is classed as protein assay.
The target of experiment [4] is T1, Muscarinic acetylcholine receptor (Rattus norvegicus). Put plainly: Relative binding efficacy for muscarinic receptors using QNB and CMD. In kind it is protein assay.
In experiment [5] the target is Muscarinic acetylcholine receptor. Put plainly: Inhibition of 0.03 nM [3H]quinuclidinyl benzylate binding to rat neocortex muscarinic receptor. The experiment is classed as protein assay.
Experiment [6] in a line: Selectivity ratio of M2/m1 receptors.
Experiment [7] concerns the target T2, Muscarinic acetylcholine receptor M2 (Rattus norvegicus, UniProt P10980).
T2 sequence (P10980 whole entry): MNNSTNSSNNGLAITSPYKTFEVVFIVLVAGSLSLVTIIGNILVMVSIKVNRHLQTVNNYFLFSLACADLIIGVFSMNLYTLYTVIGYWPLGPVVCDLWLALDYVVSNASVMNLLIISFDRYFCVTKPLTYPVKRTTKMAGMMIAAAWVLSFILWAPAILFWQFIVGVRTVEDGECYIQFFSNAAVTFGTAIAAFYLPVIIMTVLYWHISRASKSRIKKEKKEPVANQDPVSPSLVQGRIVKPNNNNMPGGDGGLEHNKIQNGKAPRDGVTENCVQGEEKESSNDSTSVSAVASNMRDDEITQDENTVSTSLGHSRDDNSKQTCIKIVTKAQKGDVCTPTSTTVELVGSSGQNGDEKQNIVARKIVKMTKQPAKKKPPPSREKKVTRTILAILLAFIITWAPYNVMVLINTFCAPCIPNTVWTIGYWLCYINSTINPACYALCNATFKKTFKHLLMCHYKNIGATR
Put plainly: Displacement of [3H]QNB from Muscarinic acetylcholine receptor M2 from rat heart homogenates. The experiment is classed as tissue-based.

Experiment [8] has as its target T3, Muscarinic acetylcholine receptor M1 (Homo sapiens, UniProt P11229).
T3 sequence (P11229 whole entry): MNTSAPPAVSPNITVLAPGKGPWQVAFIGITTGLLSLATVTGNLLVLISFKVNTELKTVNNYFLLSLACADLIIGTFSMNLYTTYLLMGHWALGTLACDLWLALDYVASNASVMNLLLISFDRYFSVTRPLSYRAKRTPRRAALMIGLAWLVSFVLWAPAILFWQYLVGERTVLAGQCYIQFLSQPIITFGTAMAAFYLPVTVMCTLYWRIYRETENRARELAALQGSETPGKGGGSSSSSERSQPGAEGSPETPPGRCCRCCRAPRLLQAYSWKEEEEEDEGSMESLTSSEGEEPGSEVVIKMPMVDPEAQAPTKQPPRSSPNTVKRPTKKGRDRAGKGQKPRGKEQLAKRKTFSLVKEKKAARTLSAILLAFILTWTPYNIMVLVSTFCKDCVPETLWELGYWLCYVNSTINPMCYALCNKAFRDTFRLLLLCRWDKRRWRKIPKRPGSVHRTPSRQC
In words: Displacement of [3H]QNB in genetically transformed mouse cell line (m1C2) transfected with Muscarinic acetylcholine receptor M1.

On to `CO/N=C/C(C)CC#CCN(C)C` (centres undefined), for which the inhibition (usually the drop in the measured response relative to a control, in per cent) came out at 6% in experiment [1] and 4% in experiment [2].

Take `CC(=O)C(C)CC#CCN(C)C` (centres undefined): the IC50 (in general, the concentration that inhibits the measured activity by half) in experiment [3] stood at 0.101 µM; in experiment [5], 55.4 µM. For the same compound, in experiment [4], the Efficacy ratio stood at 549.

In the case of `CO/N=C(\C)CCC#CCN(C)C`, the figures for the inhibition in experiment [1] and in experiment [2] were 5% and 1%, respectively.

For `CC(=O)CCC#CCN1CCCC1`, the figures for the IC50 in experiment [3] and in experiment [5] were 0.214 µM and 7.28 µM, respectively. Moreover, the Efficacy ratio in experiment [4] is 34.

As to `C[N+](C)(C)CC#CCOC(=O)Nc1cccc(Cl)c1.[Cl-]`, the IC50 in experiment [3] stood at 0.064 µM; in experiment [7], 34.1 µM; in experiment [8], 7.24 µM; in experiment [5] it was 5.388 µM. Further, the Selectivity ratio in experiment [6] stood at 4.7. Also, the Efficacy ratio in experiment [4] turned out to be 84.

With `CC(=O)CCC#CCN(C)C`, the IC50 turned out to be 0.068 µM in experiment [3], 18.9 µM in experiment [7], 51.8 µM in experiment [8] and 65.6 µM in experiment [5]. In addition, the Selectivity ratio in experiment [6] is 0.4. In addition, the Efficacy ratio in experiment [4] amounted to 965.

Turning to `C/C(=N\O)C(C)CC#CCN1CCCC1` (centres undefined), the inhibition in experiment [1] came out at 21%; in experiment [2], 15%.

As to `C/C(CCC#CCN(C)C)=N\O`, the IC50 in experiment [3] was found to be 0.139 µM; in experiment [5], 36.769 µM. Moreover, the Efficacy ratio in experiment [4] is 265.

Regarding `CC(=O)N(C)CC#CCN1CCCC1`, the IC50 in experiment [3] stood at 0.0045 µM; in experiment [7], 2.01 µM; in experiment [8], 2.45 µM; in experiment [5], 2.447 µM. In addition, the Selectivity ratio in experiment [6] is 0.9. The Efficacy ratio in experiment [4] is 544.

Turning to `C/C(CCC#CCN1CCCC1)=N\O`, the results for the IC50 in experiment [3] and in experiment [5] were 0.373 µM and 1.254 µM, respectively. Moreover, the Efficacy ratio in experiment [4] amounted to 3.

Consider `CC(=O)N(C)CC#CCN(C)C`, for which the IC50 in experiment [3] was 0.0216 µM; in experiment [7], 4.46 µM; in experiment [8] it was 87.9 µM; in experiment [5], 87.876 µM. The Selectivity ratio in experiment [6] is 0.2. Further, in experiment [4], the Efficacy ratio was determined as 4070.

For `CO/N=C(\C)CCC#CCN1CCCC1`, the inhibition is 5% in experiment [1] and 17% in experiment [2].

Regarding `C/C(=N\O)C(C)CC#CCN(C)C` (centres undefined), the inhibition in experiment [1] turned out to be 12%; in experiment [2], 9%.

For `CO/N=C(\C)C(C)CC#CCN1CCCC1` (centres undefined), the inhibition in experiment [1] came to 21%; in experiment [2], 26%.

Regarding `CC(/C=N/O)CC#CCN(C)C` (centres undefined), the IC50 is 0.03 µM in experiment [3], 34.2 µM in experiment [7], 25.9 µM in experiment [8] and 13.23 µM in experiment [5]. Also, the Selectivity ratio in experiment [6] is 1.3. Further, the Efficacy ratio in experiment [4] is 441.

As for `CC(=O)C(C)CC#CCN1CCCC1` (centres undefined), the 50% inhibitory concentration (IC50) came out at 0.059 µM in experiment [3], 6.5 µM in experiment [7], 2.8 µM in experiment [8] and 5.696 µM in experiment [5]. For the same compound, in experiment [6], the Selectivity ratio was 2.3. The Efficacy ratio in experiment [4] amounted to 97.

For `CO/N=C/C(C)CC#CCN1CCCC1` (centres undefined), the inhibition in experiment [1] was determined as 27%; in experiment [2], 15%.

As to `CC(/C=N/O)CC#CCN1CCCC1` (centres undefined), the IC50 turned out to be 0.021 µM in experiment [3], 5.5 µM in experiment [7], 0.92 µM in experiment [8] and 1.928 µM in experiment [5]. In addition, in experiment [6], the Selectivity ratio was 4.8. Besides, the Efficacy ratio in experiment [4] was 92.

With `CC(C=O)CC#CCN(C)C` (centres undefined), the inhibition in experiment [1] and in experiment [2] was 0% each time.

Consider `O=C1CCCN1CC#CCN1CCCC1` [OXOTREMORINE], for which the results for the half-maximal inhibitory concentration (IC50) in experiment [3], in experiment [8] and in experiment [5] were 0.0015 µM, 0.364 µM and 0.407 µM, respectively. In addition, in experiment [6], the Selectivity ratio was found to be 2.4. In addition, the Efficacy ratio in experiment [4] came out at 308.

For the compound `CO/N=C(\C)C(C)CC#CCN(C)C` (centres undefined), the values for the inhibition in experiment [1] and in experiment [2] were 5% and 3%, respectively.

Consider `CC(C=O)CC#CCN1CCCC1` (centres undefined), for which the inhibition in experiment [1] was determined as 1%; in experiment [2] it was 9%.

Source of the values: ChEMBL document CHEMBL1126443, “Cholinergic agents: aldehyde, ketone, and oxime analogues of the muscarinic agonist UH5” (Bioorg Med Chem Lett, 1992).
